# Where two headings read alike, the source gives them in different places.
# Columns and labels:
# EAE mice = experiment: Clinical scores for EAE symptoms in EAE induced by MOG peptide; format: in vivo, mouse
# Method: Female C57BL/6 mice were immunized with MOG35-55 (EAE mice). All mice were labeled with 8% 2H2O for 1 week and received daily treatment with either vehicle or isotretinoin (10 mg/kg/day, ip). […] Data represent mean±SEM of 8 mice per group.
# EAE was induced by subcutaneous injection of 100 μg synthetic MOG(35-55) peptide (QCB, Hopkinton, Mass.), emulsified in 0.1 ml complete Freund's adjuvant (CFA; incomplete Freund's adjuvant containing 4 mg/ml heat-killed M. tuberculosis H37Ra; both from Difco/Becton Dickinson), on day 0. Pertussis toxin (400 ng; List Biological) was injected intravenously on days 0 and 2. Sham-immunized animals were injected with CFA and PBS. Labeling with ^2H2O and treatment with isotretinoin (30 mg/kg/day) was initiated on the day of immunization, drug t.
# Accordingly, the effect of isotretinoin was assessed on clinical symptoms of EAE during chronic treatment.
# microglia [1] = details: for LPS-induced microglial proliferation: female C57BL/6 mice, LPS 1 mg/kg i.p. days 1, 3, 5, isotretinoin 40 mg/kg i.p. daily for 7 days, p<0.0001 vs LPS-treated animals
# Method: Female c57bl/6 mice were labeled with ^2H2O for 7 days and injected with LPS (1 mg/kg, i.p.) on days 1, 3 and 5. Accutane (40 mg/kg, i.p.) was administered daily for the duration of the study. […] LPS (1 mg/kg) was given on days 1, 3, and 5 of treatment. Isotretinoin (40 mg/kg/day) and 8% ^2H2O label were given for 7 days commencing on Day 1.
# Mice: All animal studies were carried out according to NIH guidelines for the care and use of laboratory animals and received prior approval by the KineMed internal animal care and use committee. 9-10 week old female C57/Bl6 mice (Taconic, Oxnard, Calif.) were housed in a climate controlled environment with a 12 hour light/dark cycle and were fed standard rodent chow and water ad libitum. For heavy water labeling, animals received a priming IP bolus of 35 ml/kg 0.9% NaCl in 99.9% ^2H2O and were maintained on 8% ^2H2O in drinking water until sacrifice.
# To induce neuroinflammation, C57/Bl6 mice received 1 mg/kg E. coli LPS (L4391, Sigma Chemical, St Louis, Mo.; serotype 0111:B4; stock of 0.2 mgs/ml in PBS) IP on days 1, 3, and 5 of ^2H2O labeling and were sacrificed the morning of day 8. In order to minimize dilution of body water ^2H enrichment in animals due to the volume of injections, 5% ^2H2O solution was used as the vehicle for LPS. Isotretinoin (Sigma) was dissolved in DMSO and administered IP daily at 40 mg/kg, drug treatment was maintained throughout the labeling period.
# Isolation and characterization of microglia: Anesthetized mice were transcardially perfused with ice-cold PBS (30 ml). Brains (without olfactory bulbs) were removed and kept in ice-cold PBS until processing. Tissue was passed once through a 1 mm mesh, and agitated in digestion buffer (12.5 ml of 150 mM NaCl, 5 mM KCl, 10 mM NaHCO3, 0.5 mM EDTA, 15 mM HEPES, 5 mM D-glucose, containing 0.5 mg/ml DNAse I [Roche] and 2.5 mg/ml trypsin [Sigma]) in a baffle flask for 25 minutes at 37° C. Trypsin was inactivated by the addition of 6.25 ml of media (1:1 Hams F10:DMEM, 10% FBS, 100,000 units/l penicillin G, 50 mg/l streptomycin sulfate, 2 mM L-glutamine). […]
# microglia [2] = experiment: Microglial proliferation in the EAE model of multiple sclerosis (2H2O labeling); format: in vivo, mouse; details: female C57BL/6 mice, MOG(35-55) immunization; isotretinoin 30 mg/kg/day i.p.; 7 days 2H2O labeling
# Method: FIG. 3 depicts the inhibition of Microglial Proliferation in the experimental autoimmune encephalomyelitis (EAE) model of neuroinflammation. Female c57bl/6 mice were labeled with ^2H2O for 7 days and received either sham or EAE immunizations. EAE was induced by subcutaneous injection of 100 μg synthetic MOG(35-55) peptide emulsified in 0.1 ml complete Freund's adjuvant on day 0. Pertussis toxin (400 ng) was injected intravenously on days 0 and 2. Minocycline (45 mg/kg, i.p.) was dissolved in saline and injected twice a day for the first 3 days, and once a day for the rest of the study. Accutane (30 mg/kg, i.p.) was dissolved in DMSO and injected once a day for the duration of the study. Data represent mean±SD of 5 animals per group. * Indicates significant difference (p<0.0001) between sham and EAE groups treated with vehicle, # indicates significant difference (p<0.0001) between vehicle and drug treated EAE groups. […]
# Analysis of cell turnover: GC/MS analysis was used to measure ^2H incorporation from ^2H2O into the deoxyribose moiety of purine deoxyribonucleotides during de novo DNA synthesis. Genomic DNA from microglia was isolated using a DNEasy tissue kit (Qiagen, Valencia, Calif.), and processed and analyzed by GC/MS. […]
compound,measurement,setting,value
"CC1=C(/C=C/C(C)=C/C=C/C(C)=C\C(=O)O)C(C)(C)CCC1 [isotretinoin, 13-cis-retinoic acid]",delay of onset of clinical symptoms of EAE,"EAE mice; MOG35-55 immunized mice, isotretinoin 10 mg/kg/day ip from the day before immunization, untreated onset 14 days PI",1 week
same,severity of clinical symptoms (clinical score) of EAE,"EAE mice; between day 18 and day 25 PI vs vehicle-treated EAE mice, p<0.05, isotretinoin 10 mg/kg/day ip",reduced the severity of clinical symptoms significantly
same,LPS-induced microglial proliferation,microglia [1],dramatically inhibited
same,LPS-induced microglial proliferation,microglia [1]; listed as isotrentinoin,Inhibits Microglial Proliferation
same,suppression of proliferation of brain microglial cells under conditions of microglial stimulation,"microglia [1]; overview statement, compared with clinically established inhibitors of neuroinflammation, including minocycline and glucocorticoids",as potent
same,microglial proliferation in the EAE model,microglia [2],dramatically inhibited

# From patent US20080027031A1, “Retinoids and Related Compounds for the Treatment of Neuroinflammatory Conditions, Diseases and Disorders” (KineMed, Inc., priority 2006, published 2008)
